Assays:
[1] = Body weight of rhino mice treated with ST1898 (Formulation 2) or adapalene; assay type: in vivo, rhino (RHJ/LeJ) mice
Procedure: (§1) 30 rhino (RHJ/LeJ) mice (Jackson Laboratory), 15 male and 15 female (6-8 weeks of age) were subdivided in 6 mice/group. Two groups were treated with ST1898 (Formulation 2) (0.1% and 0.05% in the vehicle), a group with adapalene (Differin® gel), used as reference compound (0.1%), a group with the vehicle (the same of the formulation of Differin® gel: carbomer 980, propylene glycol, poloxamer, disodium edentate, methyl hydroxybenzoate, phenoxyethanol, sodium hydroxide and purified water).
A topical application on the dorsal skin (massage for 30-45 sec) was performed of 50 μl applied with a gloved finger. The treatment was done once daily for 5 consecutive days/week (excluding Saturdays and Sundays) for 3 consecutive weeks.
During the treatment, the body weight of mice was recorded to control the healthy status of mice. No significative variation in body weight was found (table 2).
Mice were sacrificed 3 days after the last treatment. The vehicle used for ST1898 (Formulation 2) was the same of Differin gel (carbomer 980, propylene glycol, poloxamer, disodium edentate, methyl hydroxybenzoate, phenoxyethanol, sodium hydroxide and purified water).

[2] = test system: epidermal utriculi (comedones) of rhino mice; test: Comedolytic action of ST1898 (Formulation 2) on epidermal pseudocomedones in rhino mice; assay type: in vivo, rhino (RHJ/LeJ) mice
Procedure: Formulations: ST1898 0.1 and 0.05% in the vehicle.
Vehicle: carbomer 980, propylene glycol, poloxamer, disodium edentate, methyl hydroxybenzoate, phenoxyethanol, sodium hydroxide and purified water).
Adapalene (Differin Gel®) was used as reference compound (0.1%).
as §1
A group was not treated (control). The drugs (50 μl) were applied with a sterile gloved finger topically on the dorsal skin (massage for 30-45 sec), once daily for 5 consecutive days/week (excluding Saturdays and Sundays) for 3 consecutive […]. Three days after the last application, mice were sacrificed by cervical dislocation. Two skin punch biopsies (6 mm) were taken immediately after death from all sacrificed animals. The biopsies were formalin-fixed (10% buffered formalin solution) and paraffin-embedded.
Quantitative histological image analysis was evaluated as the total number of epidermal utriculi (comedones) per centimeter of stratum corneum length, the comedo profile, and the epidermal thickness. From one biopsy, three 3-μm thick skin sections were obtained at 150 μm intervals and were stained with hematoxylin-eosin. The second biopsy was kept stored for records.
Assisted computer morphometric analysis of the stained skin sections was performed using a Zeiss KS300.3 system (parameters n. 1, 3 and 4). For total length of the stratum corneum measurement a micrometric equipment was used. The following microscopic parameters were measured:
1) on each open epidermal utriculum/comedo the largest diameter or diameter taken at half depth (D) and diameter of the surface orifice (d),
2) length of the three sections, taken as total length of the stratum corneum,
3) total number of epidermal utriculi/comedones in the three sections,
4) in interfollicular areas, surface (S) of the epidermis and length (L) of the corresponding basal layer.
1) number of utriculi/(comedones)/length of stratum corneum (cm);
2) Comedo profile, calculated as r=d/D,
3) epidermal thickness, calculated as S/L in […]m.
A topical application on the dorsal skin (massage for 30-45 sec) was performed of 50 μl applied with a gloved finger. The treatment was done once daily for 5 consecutive days/week (excluding Saturdays and Sundays) for 3 consecutive weeks. […]

In the case of `COc1ccc(-c2ccc3cc(C(=O)O)ccc3c2)cc1C12CC3CC(CC(C3)C1)C2` [Adapalene, reference compound], the “Initial body weight gr ± SE” value ([1]; 0.1% group, before treatment) is reported as 21.3 ± 1.1 gr, the “Body weight loss max (%)” value ([1]; 0.1% topical qdx5/wx3w) is reported as 4% and the “Final body weight gr ± SE” value ([1]; 0.1% topical qdx5/wx3w) is reported as 21.2 ± 1.3 gr. The “Comedones (n/cm)” value ([2]; 0.1% gel (Formulation 2 / Differin gel), topical 50 μl qdx5/wx3w, mean ± SD, untreated 57.35, vehicle 57.27) was 28.31 ± 2.92 n/cm, the “Comedo profile (r = d/D)” value ([2]; 0.1% gel, topical 50 μl qdx5/wx3w, mean ± SD, untreated 0.62, vehicle 0.61) was 1.24 ± 0.11 and the “Epidermal thickness (μm)” value ([2]; 0.1% gel, topical 50 μl qdx5/wx3w, mean ± SD, untreated 20.90, vehicle 20.56) was 57.33 ± 9.99 μm. The “Histological analysis: interfollicular epidermis (in words)” value ([2]; skin of treated rhino mice) was “hyperplasia of interfollicular epidermis”.

— patent publication US7635719B2, “Use of adamatyl methoxydiphenyl propenoic acid for the treatment of acne” (Sigma-Tau Industrie Farmaceutiche Riunite S.p.A., priority 2005, dated 2009)
